{"source": "patent US20250025480A1", "about": "“METHODS AND PHARMACEUTICAL COMPOSITIONS FOR THE TREATMENT OF CHOROIDAL NEOVASCULARISATION” (INSERM (INSTITUT NATIONAL DE LA SANTE ET DE LA RECHERCHE …, priority 2015, published 2025)", "format_in_all_cases": "in vivo", "key": {"[1]": {"system": "Transcript levels of MCP1, IL6, IL1β, TNFα, VEGF-A and PIGF", "assay": "Quantitative PCR of rat neuroretina and RPE-choroid complex 3 days after laser", "conditions": "day 3, subcutaneous spironolactone", "protocol": "(§1) After anesthesia and dilation of the pupils, coverslips were positioned on the cornea as a contact glass. For rats, six to eight burns were performed 2 to 3-disk diameters away from the papillae with an Argon laser (532 nm) mounted on a slit lamp (170 mW, 0.1 second and 50 μm). For mice, four laser burns were induced at the 3, 6, 9 and 12 o'clock positions around the optic disc (250 mW, 0.05 second and 50 μm). The presence of a bubble witnessed the rupture of Bruch's membrane and confirmed the success of the laser impact.\nTreatments were introduced only in rat model of CNV. After laser photocoagulation, rats were divided into 6 groups: 1) non-treated; 2) daily subcutaneous injection of spironolactone diluted in oliver oil and DMSO (25 mg/kg/day) until sacrifice; 3) daily subcutaneous injection of vehicle (oliver oil and DMSO) until sacrifice; 4) intravitreous injection (IVT) of anti-rat VEGF (1.5 μg/μl, 5 μl, RnD system, Lille, France) only at day 0 (Couturier A et al. Anti-vascular endothelial growth factor acts on retinal microglia/macrophage activation in a rat model of ocular inflammation. Mol Vis 2014;20:908-20); 5) IVT of spironolactone-loaded PLGA MPs only at day 0 (2.2 μg/μl, 5 μl, obtained from team of Pr R. Herrero-Vanrell, Complutense University of Madrid). Considering the ex vivo release profile of Spi-MPs, the daily dose of spironolactone released in the vitreous is estimated at 18 μM; 6) IVT of blank PLGA MPs (5 μl) only at day 0.\nThree days after laser induction, rat neuroretinas and RPE-choroid-sclera complexes were carefully dissected from enulcated eyes and snap-frozen in liquid nitrogen and stored at −80° C. until use. Total RNA was isolated from tissues using RNeasy Plus Mini Kit (Qiagen, Courtaboeuf, France) according to the manufacturer's instructions. First-strand complementary DNA was synthesized from total mRNA using random primers (Life Technologies, Cergy Pontoise, France) and SuperScript II reverse transcriptase (Life Technologies). Transcript levels of MR, MCP1, IL6, IL1β, TNFα, VEGF-A and PIGF were analyzed by quantitative real-time PCR performed in 7500 Real-Time PCR System (Applied Biosystems, Foster City, CA, USA) with either SYBR Green or TaqMan detection."}, "[2]": {"system": "choroidal neovascularisation (CNV) induced by laser in rat eyes", "assay": "CNV volume quantification on RPE-choroid flatmounts (FITC-GSL I-Isolectin B4) in rat laser-induced CNV", "protocol": "(§2) All experiments were performed in accordance with the European Communities Council Directive 86/609/EEC and approved by local ethical committees (Ce5/2012/113). Six to eight-week old male Brown Norway rats from Janvier breeding Center (Le Genest-Saint-Isle, France) were used to create rat model of CNV. Vascular endothelial cell-specific MR knock-out mice (EC-MR-KO) and monocyte/macrophage-specific MR knock-out mice (MC-MR-KO) were generated in C57BL/6 genetic background mice and were obtained from team of Dr F. Jaisser (UMRS 1138, team 1). EC-MR-KO mice were created by mating transgenic mice expressing Cre recombinase in endothelial cells with mice harbouring MR-floxed alleles (Berger S et al. Loss of limbic mineralocorticoid receptor impairs behavioural plasticity. PNAS USA 2006). MC-MR-KO mice were obtained by mating mice expressing Cre recombinase in monocytes/macrophages (Clausen BE et al. Conditional gene targeting in macrophages and granulocytes using LysMcre mice. Trangenic Research 1999) with mice harbouring MR-floxed alleles. […]\nThe deepest focal plane in which the surrounding choroidal vascular network connecting to the lesion could be identified was judged to be the floor of the CNV lesion. The area of CNV-related fluorescence on each horizontal section was measured using ImageJ software. […]"}, "[3]": {"system": "choroidal neovascularisation (CNV) induced by laser in rat eyes", "assay": "Fluorescein angiography grading of vascular leakage in rat model of laser-induced CNV", "conditions": "14 days after laser, versus laser control, spironolactone subcutaneous 25 mg/kg/day, anti-VEGF intravitreous at day 0", "protocol": "as §2, with “alleles. Animals were kept in pathogen-free conditions with food, water and litter and housed in a 12-hour light/12-hour dark cycle.” for “alleles.”\nFA was performed 14 days (in rats) or 10 days (in mice) after laser induction. […] Early and late phase angiograms were recorded 1-3 and 5-7 min respectively after fluorescein injection. […]"}, "[4]": {"system": "macrophage/microglial recruitment", "assay": "IBA1 immunofluorescence count of activated macrophage/microglial cells in laser burns on RPE-choroid flatmounts", "conditions": "rat, day 3 after laser, subcutaneous spironolactone; P<0.05", "protocol": "as §1\nTreatments were introduced only in rat model of CNV. After laser photocoagulation, rats were divided into 6 groups: 1) non-treated; 2) daily subcutaneous injection of spironolactone diluted in oliver oil and DMSO (25 mg/kg/day) until sacrifice; 3) daily subcutaneous injection of vehicle (oliver oil and DMSO) until sacrifice; 4) intravitreous injection (IVT) of anti-rat VEGF (1.5 μg/μl, 5 μl, RnD system, Lille, France) only at day 0 (Couturier A et al. Anti-vascular endothelial growth factor acts on retinal microglia/macrophage activation in a rat model of ocular inflammation. […]\nThree days after laser induction (peak of macrophage infiltration), rat RPE-choroidal flatmounts were also prepared for immunofluorescence. […] IBAI positive macrophage/microglial cells were counted on stained laser lesions. The average cell number/per impact/rat eye was calculated."}, "[5]": {"conditions": "RPE-choroid complex and neuroretina"}}, "data": [{"smiles": "CC(=O)S[C@@H]1CC2=CC(=O)CC[C@]2(C)[C@H]2CC[C@@]3(C)[C@@H](CC[C@@]34CCC(=O)O4)[C@H]12", "note": "[spironolactone, 17-hydroxy-7α-mercapto-3-oxo-17α-pregn-4-ene-21-carboxylic acid γ-lactone acetate]", "values": [{"measurement": "expression of PIGF at RNA level", "setting": "[1]; [5]", "result": "not regulated"}, {"measurement": "expression of VEGF-A at RNA level", "setting": "[1]; [5]", "result": "not regulated"}, {"measurement": "laser-induced gene expression of IL1β", "setting": "[1]; RPE-choroid complex", "result": "down-regulates"}, {"measurement": "laser-induced gene expression of IL6", "setting": "[1]; RPE-choroid complex", "result": "down-regulates"}, {"measurement": "laser-induced gene expression of MCP1", "setting": "[1]; RPE-choroid complex", "result": "down-regulates"}, {"measurement": "laser-induced gene expression of TNFα", "setting": "[1]; RPE-choroid complex", "result": "down-regulates"}, {"measurement": "laser-induced gene expression of IL1β", "setting": "[1]; neuroretina", "result": "down-regulates"}, {"measurement": "laser-induced gene expression of MCP1", "setting": "[1]; neuroretina", "result": "down-regulates"}, {"measurement": "laser-induced gene expression of TNFα", "setting": "[1]; neuroretina", "result": "down-regulates"}, {"measurement": "CNV volume compared to laser control", "setting": "[2]; RPE/choroid flatmounts 16 days after laser, spironolactone subcutaneous, anti-VEGF intravitreous, P<0.01", "result": "significant decrease"}, {"measurement": "CNV development", "setting": "[2]; systemic administration of spironolactone", "result": "limits the CNV development"}, {"measurement": "decrease in angiographic score (grading of vascular leakage on FA)", "setting": "[3]", "result": "−45", "unit": "%"}, {"measurement": "activated IBA1 positive macrophage/microglia in laser burns versus laser control", "setting": "[4]", "result": "significant fewer"}]}]}
